Data: US20220233503A1, “METHODS OF TREATING SEPSIS WITH SYNAPTIC VESICLE 2A AND/OR 2B BINDING CHEMICAL ENTITIES” (INSTITUT PASTEUR, priority 2016, published 2022)

What was measured:
CLP mice [1] = test: Novel object location/recognition tests after sepsis; type: in vivo; conditions: septic mice, treated or not
Experimental: Comportemental tests: Every comportemental tests were started 15 days after sepsis induction. The experimentator was blinded to the experimental group.
Novel Object Recognition Test: Tests comprise three phases: habituation, familiarization and test phase. During the first 20 minutes animals were placed in a transparent arena under a 100 lux light that had three compartments separated with one-holed plexiglass walls. Two objects were used (a plastic power plug and a brass bolt). During the next 10 minutes two similar objects (A,A) were placed in the lateral compartments. We considered that mice were exploring the objects when they were climbing or explore it with their nose. Immediately after mice were replaced in the center of arena and two new objects (A,B) were placed in the compartments. The ratio of time spent exploring objects A and ratio of time exploring object AB were compared.
Figures J-M. Morris water Maze test (MWM) and Novel Object Location/Recognition tests.

Caspase 3 = Caspase 3 cleavage and apoptotic cell count in brain after sepsis; type: in vivo; conditions: septic mice, Western blot cleaved caspase 3 vs procaspase 3, whole brain
Description: A—Western Blot from cleaved caspase 3 from macerated brain parenchyma. B—Mean±SEM of ratios between intensity of cleaved caspase 3 vs. procaspase 3. […] D-G Cell count for late and early stage of apoptosis. WM Whitte matter, DG, Dentate Gyms, CC3 Cleaved Caspase 3.

[2] = system: peripheral nervous system; conditions: septic rats, single dose of 300, 600 or 1200 mg/kg one hour after surgery; cited from earlier work
CLP mice [3] = test: Survival after cecal ligature and puncture (CLP) sepsis; type: in vivo, C57Bl/6 mice; conditions: 300 mg/Kg intraperitoneously, within the first four days, placebo 53%, n=212, p<0.001
Experimental: Cecal ligature and puncture: Cecal ligature and puncture on mice were performed under general anesthesia. Briefly, C57Bl/6 mice were anesthetized with an intraperitoneal injection of Xylazine (20 mg/Kg, Rompun 2%, Bayer, Leverkusen, Germany), and Ketamine (100 mg/Kg, Imalgene, Mérial, Lyon, France) in 100 μl of saline solution at 0.9%. After anesthetic administration, mice were placed in a heated cage or surgical table upon awakening to maintain a body temperature at 37° C. Absence of reaction to leg and tail pinch were checked before incision of abdominal wall and peritoneum. Caecum was found with wet cotton swabs and exposed before loose ligation with Mersilk 4.0 (Ethicon, Cincinatti, USA), 2 transfixiant punctures were realized avoiding blood vessels with a 21G needle. Feces were expressed between cotton swabs before suturing abdominal muscles and peritoneum in 2 separate plans.
Analgesia and rehydration of mice were performed with buprenorphine (0.1 mg/Kg, Buprecare, Axience, Pantin, France) every 12 hours until complete recovery. […] Clinical scoring: Sepsis severity was evaluated twice a day until day 4, or normalization of «sepsis score», a previously described score that ranges from 1 to 12. […] Each item was scored 0 or 1, with a total score rang from 0 (normal) to 12 (highly severe). […]

[4] = system: murine primary monocytic cells; test: Nitric Oxide production in primary monocytic cells exposed to LPS; type: cell-based; conditions: activated murine monocytic cells, LPS 10 μg/mL, cell culture supernatant, dose effect relationship
Experimental: LPS exposure increased NO production at a dose of 10 μg/mL after 24 exposure in cell culture supernatant.

[5] = system: pro- and anti-inflammatory cytokine levels in brain parenchyma; test: Cytokine multiplex in brain parenchyma after sepsis; type: in vivo, mice; conditions: 24 hours after sepsis induction
Experimental: Cytokine multiplex: Brain samples were weighed and unfrosted in 100 μl of extraction buffer (PBS 1×, complete protease inhibitor, sigma-aldrich, triton 0.1%) processed in 2 ml Lysing Matrix A tubes with FastPrep-24 (MP biomedicals, Germany). Tubes were centrifuged at 20000 g at 4° C. and supernatant was collected and protein concentration was determined with light absorbance at 280 nm using a Nanodrop Lite Spectrophotometer (Thermo Scientific). […] Cytokines were measured using a Bio-Plex System and Mouse Cytokine Standard 23-Plex Group 1 kit following manufacturer's recommendations. Raw datas were analyzed by dividing the concentration of cytokine with protein concentration in lyzate and weight of sample measured on precision balance. Then every cytokine concentrations are presented as a ratio compared to the untreated sepsis group.

[6] = system: primary murine microglial cells; test: Cytokine transcription in LPS-activated primary microglial cells; type: cell-based, C57/B16 mice; conditions: for increase of TNFalpha gene expression: p<0.0001; for IL6 gene expression: 24 hours
Description: NO: 53) and anti-sense primer:[…] NO: 54). […] ID NO: 55) and anti-sense primer […] NO: 56). […] NO: 57) and anti-sense primer:[…] NO: 58).

microglial cells = test: Morphological analysis of microglial cells (Iba-1 staining) after sepsis; type: in vivo, mice
Experimental: Immunohistochemistry: Mice were perfused through left ventricule with paraformaldehyde 4% and the collected brains with small forceps. Brain were fixed overnight with PFA 4% and then cut in 100 μm sagittal slices with a vibratome VT1200S (Leica, Germany). Ionized calcium binding adaptor type 1 immunohistochemistry. Brain sections were washed with PBS and aspecific binding sites were saturated with a bovine serum albumine 3% in PBS solution for 4 hours. Then primary antibody (Rabbit, Wako, 40 ng/μl) was applied for 24 hours at 4° C. under constant agitation. Cyanine 3 secondary antibody (Donkey anti-Rabbit) and Hoechst 33342 (1/4000) was then applied overnight at 4° C. with constant agitation.
Imaging of samples was realized in a medium throughput spinning disk confocal microscope (CV1000) on 5×5 mozaics reconstructed with an overlap of 50% to avoid signal intensity lowering on the edge of tiles. Stitching was realized using a homemade macro with the Grid/collection plugin for Fiji channel by channel and then manually realligned if necessary. Automated analysis of microglial cell was realized on Iba1 staining. Automatic local contrast thresholding using Phanshalkar algorithm with a radius of 2 μm was performed for microglia channel, and with a radius of 12 μm for nuclei channel. Microglial cells were identified using a fixed empirical threshold for percentage of perinuclear area stained by Iba-1 using thresholded image. Only individual microglial cells obtained after segmentation with a tridimensionnal watershed algorithm were furthered considered for analysis. Morphometric study of microglial cells were performed using mcib3d plugin for FIJI. Concentric envelopes were computed starting 1 μm after nuclear envelope to analyze the number of microglial process crossing this sphere and reproduce a conformational tridimensional analysis on microglial cells.
Individual and summarized data were then analyzed in R statistics. Area under the curve of number of microglial processes. When covariant variables were identified, the most relevant was considered.
FIG. 3 (G, H, I). […]

CLP mice [7] = test: Elevated plus maze test after sepsis; type: in vivo; conditions: levetiracetam vs placebo treated CLP mice
Experimental: Elevated plus maze test: Mice home cage was placed in the experimental room 45 minutes prior any handling. Mice were placed in cross shaped 40 cm maze consisting in 2 open arms without walls and 2 closed arms with 30 cm opaque walls. Mice were tracked with ethovision XT during 5 minutes trials. The maximum velocity, total distance walked, number of entries in an open arm, and amount of time spent in an opened arm or in a closed arm were recorded. Datas are presented as Mean±SEM.
FIG. 2: Innate anxiety behavior and depressive phenotype was investigated with the elevated plus maze and splash test.

**Q.** With `CC[C@@H](C(N)=O)N1CCCC1=O` (single isomer, unassigned) [levetiracetam] as the compound, how does the “time on novel vs familiar object” value (CLP mice [1]) read?
**A.** same amount of time

**Q.** What about the “cleavage of Caspase 3 in the brain” value (Caspase 3) of the same compound?
**A.** reduces

**Q.** And the “effects on the peripheral nervous system” value [2]?
**A.** broad spectrum of protective and restorative effects

**Q.** What about the survival rate (CLP mice [3]) of the same compound?
**A.** 81%

**Q.** And the “production of Nitric Oxide” value [4]?
**A.** reduced

**Q.** And the “TNF alpha in brain parenchyma (multiplex)” value ([5]; sepsis group treated)?
**A.** could not be detected

**Q.** What about the “IL4 concentration in brain parenchyma (multiplex)” value ([5]; vs septic mice receiving saline) of the same compound?
**A.** increased

**Q.** And the “increase of TNFalpha gene expression” value ([6]; high LPS (10 ng/mL), high dose levetiracetam (100 micrograms/mL), [0.86-0.30])?
**A.** 0.58

**Q.** What about the “decrease of TNFalpha gene expression” value ([6]; high LPS (10 ng/mL), low dose levetiracetam (10 micrograms/mL), [0.10-0.66], p<0.01) of the same compound?
**A.** 0.38

**Q.** And the IL6 gene expression ([6]; high-dose LPS (10 ng/mL), high-dose levetiracetam (100 micrograms/mL), [0.25-0.97], p<0.001)?
**A.** 0.61 fold

**Q.** What about the IL1 beta expression ([6]; in vitro, activated microglial cell or not) of the same compound?
**A.** No effect

**Q.** What about the “increase of TNFalpha gene expression” value ([6]; low LPS (1 ng/mL), low levetiracetam (10 micrograms/mL), [0.82-0.26]) of the same compound?
**A.** 0.53

**Q.** What about the IL6 gene expression ([6]; low-dose LPS challenge (1 ng/mL)) of the same compound?
**A.** did not modify

**Q.** And the “principal components of microglial morphology” value (microglial cells; 4 main components of 107 morphological criteria, septic mice)?
**A.** different

**Q.** And the “microglial cell morphological changes” value (microglial cells; 6 hours after sepsis, CeA and B1A)?
**A.** decreased

**Q.** What about the “number of microglial cell processes” value (microglial cells; 15 days after sepsis) of the same compound?
**A.** increased dramatically

**Q.** What about the “innate anxiety (elevated plus maze)” value (CLP mice [7]) of the same compound?
**A.** No difference
